The values that follow are results of earlier work, collected in patent publication US6818658B2, “Acylated piperidine derivatives as melanocortin-4 receptor agonists” (Merck & Co., Inc., priority 2001, dated 2004).

The conditions of data set [1]: patients.
For data set [2] the following is noted: injected intramuscularly or subcutaneously, males with psychogenic erectile dysfunction.

For the molecule `Cc1ccc(N(CC2=NCCN2)c2cccc(O)c2)cc1` [phentolamine], the duration of effect in data set [1] is 2 h. Besides, in data set [1] (for sildenafil after an oral dose), the onset of action is 5 to 30 min.
Regarding “Ac-Nle-c[Asp-His-DPhe-Arg-Trp-Lys]-NH2 [MT-II]”, the response rate in data set [2] is recorded as 75%.
